By Ki is commonly meant a dissociation constant, usually derived from enzyme kinetics or from competition with a known ligand. A higher Ki goes with weaker binding.

Where a SMILES comes first, the peptide text is derived from it. [ ]: non-standard residue; d: D form.

In one test the target is T1, Galanin receptor type 3 (Rattus norvegicus, UniProt O88626).
T1 sequence (O88626 whole entry): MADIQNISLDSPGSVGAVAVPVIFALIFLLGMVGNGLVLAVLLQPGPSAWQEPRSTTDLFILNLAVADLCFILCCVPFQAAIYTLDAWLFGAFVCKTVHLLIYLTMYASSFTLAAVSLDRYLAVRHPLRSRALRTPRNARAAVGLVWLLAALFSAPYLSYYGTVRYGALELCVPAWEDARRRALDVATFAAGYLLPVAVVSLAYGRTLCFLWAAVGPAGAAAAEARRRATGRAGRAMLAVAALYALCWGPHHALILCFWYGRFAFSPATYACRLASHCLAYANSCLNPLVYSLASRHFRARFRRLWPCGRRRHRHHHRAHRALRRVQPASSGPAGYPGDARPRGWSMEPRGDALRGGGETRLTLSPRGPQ

In the next test the target is T2, Galanin receptor type 2 (Rattus norvegicus, UniProt O08726).
T2 sequence (O08726 whole entry): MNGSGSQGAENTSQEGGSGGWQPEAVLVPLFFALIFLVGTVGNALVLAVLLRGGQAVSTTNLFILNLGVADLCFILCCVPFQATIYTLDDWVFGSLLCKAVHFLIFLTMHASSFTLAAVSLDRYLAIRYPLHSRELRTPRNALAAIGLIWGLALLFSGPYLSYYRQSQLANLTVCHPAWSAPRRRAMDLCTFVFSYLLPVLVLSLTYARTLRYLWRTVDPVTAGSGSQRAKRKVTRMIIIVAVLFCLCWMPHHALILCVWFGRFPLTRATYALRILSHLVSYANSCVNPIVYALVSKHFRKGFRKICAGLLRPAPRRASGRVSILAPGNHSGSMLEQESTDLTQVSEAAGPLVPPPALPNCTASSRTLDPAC

In the case of `CC(C)C[C@H](NC(=O)[C@H](CC(C)C)NC(=O)[C@H](Cc1ccc(O)cc1)NC(=O)CNC(=O)[C@H](C)NC(=O)[C@H](CO)NC(=O)[C@H](CC(N)=O)NC(=O)[C@H](CC(C)C)NC(=O)[C@@H](NC(=O)[C@H](Cc1c[nH]c2ccccc12)NC(=O)CN)[C@@H](C)O)C(=O)NCC(=O)N1CCC[C@H]1C(=O)N1CCC[C@H]1C(=O)N1CCC[C@H]1C(=O)NCC(=O)N[C@@H](Cc1ccccc1)C(=O)N[C@@H](CO)C(=O)N1CCC[C@H]1C(=O)N[C@@H](Cc1ccccc1)C(=O)N[C@@H](CCCN=C(N)N)C(N)=O`, at Galanin receptor type 3, the affinity corresponds to a Ki of 7.5 nM.
`CCC(C)C(NC(=O)C(C)NC(=O)C(Cc1cnc[nH]1)NC(=O)C1CCCN1C(=O)CNC(=O)C(CC(C)C)NC(=O)C(CC(C)C)NC(=O)C(Cc1ccc(O)cc1)NC(=O)CNC(=O)C(C)NC(=O)C(CO)NC(=O)C(CC(N)=O)NC(=O)C(CC(C)C)NC(=O)C(NC(=O)C(Cc1c[nH]c2ccccc12)NC(=O)CN)C(C)O)C(=O)NC(CC(=O)O)C(=O)NC(CC(N)=O)C(=O)NC(Cc1cnc[nH]1)C(=O)NC(CCCN=C(N)N)C(=O)NC(CO)C(=O)NC(Cc1ccccc1)C(=O)NC(CO)C(=O)NC(CC(=O)O)C(=O)NC(CCCCN)C(=O)NC(Cc1cnc[nH]1)C(=O)NCC(=O)NC(CC(C)C)C(=O)NC(C(=O)NCC(N)=O)C(C)O` (stereo unspecified) [CAS_132699-74-2] showed a Ki at Galanin receptor type 3 of more than 1000 nM.
For `CC(C)C[C@H](NC(=O)[C@H](CC(C)C)NC(=O)[C@@H](Cc1c[nH]c2ccccc12)NC(=O)[C@H](Cc1ccccc1)NC(=O)[C@@H](Cc1c[nH]c2ccccc12)NC(=O)[C@H](CCC(N)=O)NC(=O)[C@H](CCC(N)=O)NC(=O)[C@@H]1CCCN1C(=O)[C@H](CCCCN)NC(=O)[C@@H]1CCCN1C(=O)[C@@H](CCCNC(=N)N)NC(=O)[C@@H]1CCCN1C(=O)CNC(=O)[C@H](CC(C)C)NC(=O)[C@H](CC(C)C)NC(=O)[C@H](Cc1ccc(O)cc1)NC(=O)CNC(=O)[C@H](C)NC(=O)[C@H](CO)NC(=O)[C@H](CC(N)=O)NC(=O)[C@H](CC(C)C)NC(=O)[C@@H](NC(=O)[C@H](Cc1c[nH]c2ccccc12)NC(=O)CN)[C@@H](C)O)C(N)=O` [Gal(1-13)-Std I] (H-GWTLNSAGYLLGP[dR]PKPQQ[dW]F[dW]LL-NH2), the Ki at Galanin receptor type 3 was 0.75 nM.
On Galanin receptor type 3, `CC(C)C[C@H](NC(=O)[C@H](CC(C)C)NC(=O)[C@@H](Cc1c[nH]c2ccccc12)NC(=O)[C@@H](Cc1c[nH]c2ccccc12)NC(=O)[C@H](C)NC(=O)[C@H](NC(=O)[C@H](CC(N)=O)NC(=O)[C@H](CC(C)C)NC(=O)[C@@H](NC(=O)[C@H](Cc1c[nH]c2ccccc12)NC(=O)CN)[C@@H](C)O)[C@H](C)O)C(=O)NCC(=O)N1CCC[C@H]1C(=O)N[C@@H](Cc1cnc[nH]1)C(=O)N[C@@H](C)CO` [Gal-(1-15)-ol,[d-Thr6,d-Trp8,9]] had a Ki of 1000 nM.
On Galanin receptor type 3, `CC(C)C[C@H](NC(=O)[C@H](CC(C)C)NC(=O)[C@H](Cc1ccc(O)cc1)NC(=O)[C@@H](Cc1c[nH]c2ccccc12)NC(=O)[C@H](C)NC(=O)[C@H](C)NC(=O)[C@H](CC(N)=O)NC(=O)[C@H](CC(C)C)NC(=O)[C@@H](NC(=O)[C@H](Cc1c[nH]c2ccccc12)NC(=O)CN)[C@@H](C)O)C(=O)NCC(=O)N1CCC[C@H]1C(=O)N[C@@H](Cc1cnc[nH]1)C(=O)N[C@@H](C)CO` [Galanin (1-15)-ol,[Ala6,D-trp8]] showed a Ki of 17.9 nM.
The compound `CC[C@H](C)[C@H](NC(=O)[C@H](C)NC(=O)[C@H](Cc1c[nH]cn1)NC(=O)[C@@H]1CCCN1C(=O)CNC(=O)[C@H](CC(C)C)NC(=O)[C@H](CC(C)C)NC(=O)[C@H](Cc1ccc(O)cc1)NC(=O)CNC(=O)[C@H](C)NC(=O)[C@H](CO)NC(=O)[C@H](CC(N)=O)NC(=O)[C@H](CC(C)C)NC(=O)[C@@H](N)[C@@H](C)O)C(=O)N[C@@H](CC(=O)O)C(=O)N[C@@H](CC(N)=O)C(=O)N[C@@H](Cc1c[nH]cn1)C(=O)N[C@@H](CCCNC(=N)N)C(=O)N[C@@H](CO)C(=O)N[C@@H](Cc1ccccc1)C(=O)N[C@@H](CO)C(=O)N[C@@H](CC(=O)O)C(=O)N[C@@H](CCCCN)C(=O)N[C@@H](Cc1c[nH]cn1)C(=O)NCC(=O)N[C@@H](CC(C)C)C(=O)N[C@H](C(N)=O)[C@@H](C)O` [Galanin (3-29), rat] yielded a Ki at Galanin receptor type 3 of 1000 nM.
For the compound `CC[C@H](C)[C@H](NC(=O)[C@H](C)NC(=O)[C@H](Cc1c[nH]cn1)NC(=O)[C@@H]1CCCN1C(=O)CNC(=O)[C@H](CC(C)C)NC(=O)[C@H](CC(C)C)NC(=O)[C@H](Cc1ccc(O)cc1)NC(=O)CNC(=O)[C@H](C)NC(=O)[C@H](CO)NC(=O)[C@H](CC(N)=O)NC(=O)[C@H](CC(C)C)NC(=O)[C@@H](NC(=O)[C@@H](N)Cc1c[nH]c2ccccc12)[C@@H](C)O)C(=O)N[C@@H](CC(=O)O)C(=O)N[C@@H](CC(N)=O)C(=O)N[C@@H](Cc1c[nH]cn1)C(=O)N[C@@H](CCCNC(=N)N)C(=O)N[C@@H](CO)C(=O)N[C@@H](Cc1ccccc1)C(=O)N[C@@H](CO)C(=O)N[C@@H](CC(=O)O)C(=O)N[C@@H](CCCCN)C(=O)N[C@@H](Cc1c[nH]cn1)C(=O)NCC(=O)N[C@@H](CC(C)C)C(=O)N[C@H](C(N)=O)[C@@H](C)O` [Galanin Porcine 2-29], the figures for the Ki at Galanin receptor type 2 and at Galanin receptor type 3 were 1.92 nM and 12.6 nM, respectively.
For `CC[C@H](C)[C@H](NC(=O)[C@H](C)NC(=O)[C@H](Cc1cnc[nH]1)NC(=O)[C@@H]1CCCN1C(=O)CNC(=O)[C@H](CC(C)C)NC(=O)[C@H](CC(C)C)NC(=O)[C@H](Cc1ccc(O)cc1)NC(=O)CNC(=O)[C@H](C)NC(=O)[C@H](CO)NC(=O)[C@H](CC(N)=O)NC(=O)[C@H](CC(C)C)NC(=O)[C@@H](NC(=O)[C@H](Cc1c[nH]c2ccccc12)NC(=O)CN)[C@@H](C)O)C(=O)N[C@@H](CC(=O)O)C(=O)N[C@@H](CC(N)=O)C(=O)N[C@@H](Cc1cnc[nH]1)C(N)=O` [Galanin rat], the Ki amounted to 4.7 nM at Galanin receptor type 2 and 6.25 nM on Galanin receptor type 3.
“H-ELEPEDEARPGGFDRLQSQDKAIRTIMEFLAFLHLKEAGAL-NH2 [GMAP (1-41)]” registered a Ki at Galanin receptor type 3 of 1000 nM.
Take H-GWTLNSAGYLLGPPPALALA-NH2 [M40]: the results for the Ki at Galanin receptor type 2 and on Galanin receptor type 3 were 2.88 nM and 54 nM, respectively.
As to “H-LLGPHAIDNHRSFSDKHGLT-NH2 [Galanin (10-29), rat]”, on Galanin receptor type 3, the affinity, expressed as Ki, was 1000 nM.
Consider “H-LPGLPSAASSEDAGQS-NH2 [CAS_125455-59-6]”, for which the Ki is 1000 nM on Galanin receptor type 2 and more than 1000 nM on Galanin receptor type 3.
